{"source": "patent US20070225210A1", "about": "“Therapeutic vaccine compositions for the treatment of type 1 diabetes” (priority 2003, published 2007)", "origin": "cited, not measured here", "key": {"insulin": {"test_system": "insulin", "conditions": "aqueous formulations, administered subcutaneously, NOD mice"}, "[1]": {"test_system": "individuals with, or at risk of, type 1 diabetes", "conditions": "repeat administration of low doses"}}, "data": [{"substance": "SHLVEALYLVCGERG (Insulin B chain analog) [insulin B chain 9-23, 9-23 fragment of the native insulin B chain]", "values": [{"measurement": "prevention of the onset of diabetes", "setting": "NOD mice; aqueous formulations, administered subcutaneously", "value": "can prevent the onset of diabetes"}, {"measurement": "protection from the onset of diabetes", "setting": "NOD mice; immunization", "value": "protect from the onset of diabetes"}, {"measurement": "protection against diabetes", "setting": "NOD mice; immunization, administered intranasally", "value": "partial protection against diabetes"}, {"measurement": "immune response to insulin", "setting": "insulin", "value": "can induce an immune response to insulin"}]}, {"substance": "insulin B chain: native human insulin B chain peptide with cysteinyl residues at positions 7 and 19", "values": [{"measurement": "symptoms of diabetes and insulin-dependency of the patient", "setting": "[1]", "value": "can prevent or reduce the symptoms of diabetes and the insulin-dependency of the patient"}, {"measurement": "protection from the onset of diabetes", "setting": "NOD mice; immunization", "value": "protect from the onset of diabetes"}]}]}
